Measurements taken from US6562793B2, “Antiallergic agent” (We'll Corporation, priority 2000, dated 2003).

What was measured:
Solubility in water = type: physicochemical
[1] = test system: mast cells from the rat abdominal cavity; assay: Inhibition of histamine release from mast cells from a rat abdominal cavity; type: cell-based; settings: Releaser: Compound 48/80
Method: A mast cell suspension is collected from a rat abdominal cavity. The suspension is treated with a sample adjusted to 1 to 0.01% (specimen) and to the mixture is added a histamine releasing agent. Inhibition of this release is observed to determine an activity value. […]
A solution of sample adjusted to a concentration of 0.01 to 0.003% in Tyrode's solution containing phosphatidyl-L-serine (PS) (1.75 mL) was preincubated at 37° C. for 5 min. To the solution was added 0.05 mL of the mast cell suspension from the rat abdominal cavity and the mixture was preincubated for further 15 min. […] A control was prepared as described above except that 1.75 mL of Tyrode's solution containing PS was used in place of 1.75 mL of the sample solution in Tyrode's solution containing PS and 0.2 mL of […] PS. After quenching the reaction by ice cooling, the mixture was centrifuged at 300×g and 4° C. for 10 min. The amounts of histamine were determined for the supernatant and the sediment, respectively, according to the method of Shore et al. to calculate an inhibition rate to histamine release.
Calculation equation for a histamine release rate [formula]
PS=Amount of histamine in the supernatant
PR=Amount of histamine remaining in the cells
Calculation equation for a release inhibition rate [formula]
S=Release rate of the sample
C=Release rate of the control […]

## O=c1c(O[C@@H]2OC(CO[C@@H]3OC(CO)[C@@H](O)C(O)C3O)[C@@H](O)C(O)C2O)c(-c2ccc(O)cc2)oc2cc(O)cc(O)c12 (stereo partly drawn) [kaempferol 3-0 [β-D-glucopyranosyl-(1→6)-β-D-glucopyranoside]]
Solubility in water
  solubility in water: freely soluble
[1]; concentration 3 × 10^−5 g/mL
  Inhibition rate: 28.5%
[1]; concentration 9 × 10^−5 g/mL
  Inhibition rate: 98.4%
